Measurements reported in patent US20260315446A1, “ANTIFUNGAL COMPOUNDS AND USES THEREOF” (priority 2023, published 2026).

Key:
[1] = test system: T follicular helper (Tfh) cells; test: In vivo immunosuppression, T follicular helper cells (Example 1); design: species or system mouse (C57BL/6); conditions: daily i.p., FK506 5 mg/kg or JH-FK-05 60 mg/kg; day 7
Method: Based on the in vitro evidence of reduced immunosuppressive activity of JH-FK-05, it was hypothesized that this reduction would translate into reduced immunosuppression in an in vivo model. The murine model for immunosuppression measures the T cell-dependent proliferation of two immune cell subtypes in response to immunization with an antigen. Animals were treated daily via intraperitoneal (i.p.) injection with vehicle, 5 mg/kg FK506, or 60 mg/kg JH-FK-05, beginning on day −1 and ending on day 7. […] On day 0, animals were immunized with NP-OVA to stimulate T cell-dependent signaling that would result in proliferation of T follicular helper (Tfh) cells and germinal center (GC) B cells. Animals were sacrificed on day 7, and the proportions of Tfh and GC B cells in the lymph nodes were measured. […]
Groups of 6 female C57BL/6 mice (Jackson Laboratory) were treated daily by intraperitoneal (i.p.) injection with about 100 μL vehicle, 5 mg/kg FK506, or 60 mg/kg JH-FK-05 beginning on day −1. […] Mice were treated and monitored daily until they were sacrificed on day 7. Draining lymph nodes were harvested on day 7, and the populations of T follicular helper cells and GC B cells were analyzed by flow cytometry. Tfh and GC B cells were measured from T Cell Receptor β (TCRβ^+) CD4^+CD44^hi cells and TCRβ^−CD19^+ cells, respectively.

[2] = target: T1, C. albicans FKBP12 and CnA-CnB-calmodulin complex (UniProt C4YFI3+C4YS24+P28870); test: Biolayer interferometry ternary complex formation; format: binding, Candida albicans; conditions: BLI, 10 μM compound, steady-state and kinetic analyses
T1 construct: N-tagged CnA 54-609, untagged CnB and calmodulin co-expressed in Tni insect cells
Method: To better understand the relationship between structure and activity of these analogs, FK506 analog, JH-FK-02 was tested, and one FK520 analog, JH-FK-05 was tested, for their binding dynamics to CnA and CnB by biolayer interferometry (BLI). Purified and biotinylated (Avi-tagged) FKBP12 from A. fumigatus and C. albicans were loaded onto streptavidin sensors in the presence of an inhibitor, followed by titration of the respective CnA-CnB-calmodulin complex, also in the presence of an inhibitor. Data were double referenced using parallel reference sensors and sample blanks.
Biolayer interferometry (BLI) experiments were completed using either A. fumigatus or C. albicans FKBP12 and CnA/CnB/calmodulin complexes, along with compounds FK506, APX879, FK520, JH-FK-02, and JH-FK-05. Initial buffer (25 mM Tris, 200 mM NaCl, and 1 mM TCEP [pH 8.0]) was prepared using 1 M Tris-HCl (pH 8.0, catalog no. T1080; Teknova), 5 M sodium chloride (catalog no. S0251; Teknova), TCEP (catalog no. M115; Soltec Ventures, Inc.), and was readjusted to pH 8 before sterile filtering. […]
Data were processed and analyzed using ForteBio Data Analysis software version 11.1.3.10. […] Kinetics data were analyzed using the “association and dissociation curve fitting” option utilizing a 1:1 model. […]

T1 sequence (P28870 whole entry): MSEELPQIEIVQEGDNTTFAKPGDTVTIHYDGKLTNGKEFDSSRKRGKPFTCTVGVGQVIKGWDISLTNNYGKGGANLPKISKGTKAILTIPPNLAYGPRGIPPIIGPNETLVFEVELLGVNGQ
T1 sequence (C4YFI3 54-609): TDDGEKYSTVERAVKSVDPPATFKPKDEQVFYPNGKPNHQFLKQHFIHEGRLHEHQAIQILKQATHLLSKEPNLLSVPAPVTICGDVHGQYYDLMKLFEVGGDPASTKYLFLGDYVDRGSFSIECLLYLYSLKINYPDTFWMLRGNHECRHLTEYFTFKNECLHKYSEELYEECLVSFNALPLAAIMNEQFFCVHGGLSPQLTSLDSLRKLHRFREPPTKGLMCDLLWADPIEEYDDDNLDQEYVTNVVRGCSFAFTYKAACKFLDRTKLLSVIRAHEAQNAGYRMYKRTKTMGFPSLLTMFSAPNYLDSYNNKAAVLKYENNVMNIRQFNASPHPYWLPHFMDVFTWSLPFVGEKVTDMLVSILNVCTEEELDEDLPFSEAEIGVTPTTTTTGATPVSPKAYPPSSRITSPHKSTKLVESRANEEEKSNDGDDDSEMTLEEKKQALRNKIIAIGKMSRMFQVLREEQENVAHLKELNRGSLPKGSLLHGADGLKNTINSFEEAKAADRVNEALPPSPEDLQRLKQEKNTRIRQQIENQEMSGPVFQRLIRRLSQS
T1 sequence (C4YS24 1-173): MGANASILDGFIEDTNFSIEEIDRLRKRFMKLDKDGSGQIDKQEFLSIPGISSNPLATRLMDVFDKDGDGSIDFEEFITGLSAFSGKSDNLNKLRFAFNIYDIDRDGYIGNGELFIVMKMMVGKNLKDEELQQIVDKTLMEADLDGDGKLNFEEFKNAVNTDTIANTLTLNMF
T1 sequence (P23286 whole entry partner): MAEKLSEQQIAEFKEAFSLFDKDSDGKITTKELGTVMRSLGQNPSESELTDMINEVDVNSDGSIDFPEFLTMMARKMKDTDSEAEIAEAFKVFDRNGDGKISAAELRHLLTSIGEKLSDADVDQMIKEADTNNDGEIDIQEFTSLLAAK

SMILES | proliferation/presence of Tfh cells [1] | affinity of target complex formation in presence of analog [2]
C=CCC1C=C(C)CC(C)CC(OC)C2OC(O)(C(=O)C(=O)N3CCCCC3C(=O)OC(C(C)=CC3CCC(O)C(OC)C3)C(C)C(O)CC1=O)C(C)CC2OC (stereo not shown) [FK506, reference compound] | significantly reduced the proliferation | 
C=CC[C@@H]1/C=C(\C)C[C@H](C)C[C@H](OC)[C@H]2O[C@@](O)(C(=O)C(=O)N3CCCC[C@H]3C(=O)O[C@H](/C(C)=C/[C@@H]3CC[C@@H](O)[C@H](OC)C3)[C@H](C)[C@@H](O)C/C1=N/NC(=O)CC)[C@H](C)C[C@@H]2OC [JH-FK-02] |  | affinities similar to those of the parent compounds
CC[C@@H]1/C=C(\C)C[C@H](C)C[C@H](OC)[C@H]2O[C@@](O)(C(=O)C(=O)N3CCCC[C@H]3C(=O)O[C@H](/C(C)=C/[C@@H]3CC[C@@H](O)[C@H](OC)C3)[C@H](C)[C@@H](O)C/C1=N/NC(C)=O)[C@H](C)C[C@@H]2OC [JH-FK-05] | did not reduce the presence of either cell type and was statistically indistinguishable from the vehicle treatment | affinities similar to those of the parent compounds
